Measurements from patent publication US11491109B2, “Pharmaceutical compositions for basic or neutral, low molecular weight compounds” (Hoffmann-La Roche Inc., priority 2017, dated 2022).
≈ marks a conversion by molar mass, not a printed value. Where “and” joins values, the source holds several entries; their conditions need not be identical. Equal values may be shown once. Read-outs that look alike come from different tables or passages of the source.

Legend:
Type in all cases: physicochemical
[1] = Equilibrium solubility in EPO-solutions, 96-well SORESOS assay; conditions: for course of solubility with polymer concentration: EPO 0.1-5%; for Adjusted SE in EPO 0.1% / Adjusted SE in EPO 0.5% / Adjusted SE in EPO 1.0% / Adjusted SE in EPO 2.0% / Adjusted SE in EPO 3.0% / Adjusted SE in EPO 4.0% / Adjusted SE in EPO 5.0%: vs adjusted solubility in water at pH 6.0; for Non-adjusted SE in EPO 0.1% (in brackets) / Non-adjusted SE in EPO 0.5% (in brackets) / Non-adjusted SE in EPO 1.0% (in brackets) / Non-adjusted SE in EPO 3.0% (in brackets) / Non-adjusted SE in EPO 4.0% (in brackets) / Non-adjusted SE in EPO 5.0% (in brackets) / Non-adjusted SE in EPO 2.0% (in brackets): vs measured solubility in water
Protocol: Polymer solutions were prepared by dissolving EPO (0.1%, 0.5%, 1%, 2%, 3%, 4%, 5% (w/w)) in deionized water and adjusting all solutions to pH 6.0 by hydrochloric acid and sodium hydroxide at 25° C. Solutions were checked carefully for absence of particles.
(§1) Solubility of compounds in EPO-solutions was determined by using a 96-well assay that was introduced to measure equilibrium solubility in parallel to a solid state analysis of the residual solid (SORESOS)^21 as described before.^22 In brief, APIs were dispensed using the powder-picking-method^23 in a 96-well flat bottom plate (Corning Inc., Durham, USA). Mixtures were agitated by head-over-head rotation for 48 h at room temperature after addition of stir bars and polymer solutions (150 μl). After mixing, the suspensions were carefully transferred into 96-well filter plates and the liquid and solid phase were separated by centrifugation. […] An isocratic flow (composition of the mobile phase is listed in Table 2) was applied for 0.3 min at a flow rate of 0.75 mL/min. […] Solid state analysis of residual solid was performed by X-ray powder diffraction (XRPD) using a STOE Stadi P Combi diffractometer with a primary Ge-monochromator (Cu Kα radiation), imaging plate position sensitive detector (IP-PSD), and a 96-well sample stage as described before.^21 The IP-PSD allowed simultaneous recording of the diffraction pattern on both sides of the primary beam which were summed up by the software STOE WinXPOW to reduce effects related to poor crystal orientation statistics. Samples were analyzed directly in the 96-well filter plate with an exposure time of 5 min per well.
as §1, with “After addition of stir bars and polymer solutions (150 μl), mixtures” for “Mixtures”, “temperature.” for “temperature after addition of stir bars and polymer solutions (150 μl).”, “7)” for “2)”

[2] = pKa via photometric titration (Roche internal data); conditions: measured via photometric titration; basic model compounds
[3] = Drug solubility in water (aqueous solubility); conditions: thermodynamic from solid
[4] = pH of drug suspensions in water and in EPO-solutions; conditions: EPO 0.5%, 2%, and 5%; solutions started at pH 6.0
Protocol: All excipient solutions were adjusted to pH 6.0 before incubation and following equilibration, the residual solid was analyzed by means of XRPD. […] This extrapolation method was based on the Henderson-Hasselbalch equation and it is generally reliable when the experimental solubility value is within one pH unit difference.^25

[5] = 24 h incubation, pH not adjusted, read-out: Solubility in water (standard deviation, n = 3)
[6] = extrapolated to pH 6.0 by Henderson-Hasselbalch equation, read-out: Adjusted solubility at pH 6.0

| SMILES | course of solubility with polymer concentration ([1]; 48 h, room temperature) | pKa [2] | Adjusted SE in EPO 0.1% [1] | Non-adjusted SE in EPO 0.1% (in brackets) [1] | Adjusted SE in EPO 0.5% [1] | Non-adjusted SE in EPO 0.5% (in brackets) [1] | Adjusted SE in EPO 1.0% [1] | Non-adjusted SE in EPO 1.0% (in brackets) [1] | Adjusted SE in EPO 2.0% [1] | Adjusted SE in EPO 3.0% [1] | Non-adjusted SE in EPO 3.0% (in brackets) [1] | Adjusted SE in EPO 4.0% [1] | Non-adjusted SE in EPO 4.0% (in brackets) [1] | Adjusted SE in EPO 5.0% [1] | Non-adjusted SE in EPO 5.0% (in brackets) [1] | solubility at 24 h [3, 5] [µg/mL] | solubility at 24 h [3, 6] [µg/mL] | Non-adjusted SE in EPO 2.0% (in brackets) [1] | other results |
| --- | --- | --- | --- | --- | --- | --- | --- | --- | --- | --- | --- | --- | --- | --- | --- | --- | --- | --- | --- |
| COC1=CC(=O)C[C@@H](C)[C@]12Oc1c(Cl)c(OC)cc(OC)c1C2=O [GFN, griseofulvin] | solubility decreased again and finally reached a kind of plateau |  |  |  |  |  |  |  |  |  |  |  |  |  |  |  |  |  | EPO concentration of maximum solubility ([1]; 48 h, room temperature): 2 % EPO (w/w) |
| CC/C(=C(\c1ccccc1)c1ccc(OCCN(C)C)cc1)c1ccccc1 [TMX, tamoxifen] |  | 9.7 |  |  |  |  |  |  |  |  |  |  |  |  |  |  |  |  |  |
| OC(c1cc(C(F)(F)F)nc2c(C(F)(F)F)cccc12)C1CCCCN1 (stereo not drawn) [MFQ, mefloquine] | increase of solubility with polymer concentration up to 5% EPO | 9.2 | 0.2 | 7.2 | 1.0 | 37.3 | 1.5 | 58.3 | 2.4 | 3.6 | 141.5 | 4.4 | 172.5 | 4.8 | 186.2 | 63 (≈ 167 µM) | 2450 (≈ 6470 µM) |  | solubility at 48 h ([1]; aqueous EPO polymer solution, pH 6, aqueous with cosolvent or surfactant or cyclodextrin, thermodynamic from solid, EPO 5%, 48 h, room temperature): 12000 µg/mL (≈ 31700 µM); pH after 48 h in EPO [4]: 6.3 and 6.4 |
| CCOC(=O)C1=C(C)NC(C)=C(C(=O)OC)C1c1cccc(Cl)c1Cl (stereo not drawn) [FLP, felodipine] | increase of solubility with polymer concentration up to 5% EPO |  |  |  |  |  |  |  |  |  |  |  |  |  |  |  |  |  | solubility ([3]; neutral model compounds, n = 3): 0.4 µg/mL (≈ 1.04 µM) |
| COc1ccccc1OCCNCC(O)COc1cccc2[nH]c3ccccc3c12 (stereo not drawn) [CVD, carvedilol] |  | 8.1 | 1.7 | 24.3 | 6.7 | 94.9 | 6.9 |  | 10.7 | 11.1 | 157.4 | 10.6 | 150.9 | 11.7 | 165.9 |  | 71 (≈ 175 µM) | 152.3 | EPO concentration at which solubility reached a plateau ([1]; 48 h, room temperature): 2 % EPO (w/w) |
| CC(C)(C)c1ccc(C(O)CCCN2CCC(C(O)(c3ccccc3)c3ccccc3)CC2)cc1 (stereo not drawn) [TFD, terfenadine] |  | 9.1 | 2.5 | 16.0 | 6.6 | 43.2 | 8.3 | 54.0 | 11.7 | 15.3 | 99.3 | 14.6 | 94.8 | 14.0 | 91.2 | 2 (≈ 4.24 µM) | 13 (≈ 27.6 µM) | 76.2 | EPO concentration at which solubility reached a plateau ([1]; 48 h, room temperature): 2 % EPO (w/w) |
| C(=C\c1ccccc1)/CN1CCN(C(c2ccccc2)c2ccccc2)CC1 [CNZ, Cinnarizine] |  | 7.8 | 2.7 (2.7) | 2.7 (2.7) | 10.3 (10.3) | 10.3 (10.3) | 15.3 (15.3) | 15.3 (15.3) | 29.3 (29.3) | 37.3 (37.3) | 37.3 (37.3) | 39.0 (39.0) | 39.0 (39.0) | 37.0 (37.0) | 37.0 (37.0) | 1 (≈ 2.71 µM) | 1 (≈ 2.71 µM) | 29.3 (29.3) |  |
| O=c1[nH]c2ccccc2n1C1CCN(CCCC(c2ccc(F)cc2)c2ccc(F)cc2)CC1 [PMZ, Pimozide] | increase of solubility with polymer concentration up to 5% EPO | 8.6 | 2.0 | 12.8 | 5.4 | 35.3 | 5.0 | 32.3 | 6.9 | 8.5 | 55.2 | 9.3 | 60.2 | 9.8 | 63.8 | 2 (≈ 4.33 µM) | 13 (≈ 28.2 µM) | 45.0 |  |
